From PubChem BioAssay AID1963875 (Molecular Pharmacology Branch, DTP, NCI, 2024)

Test system: KRAS-mutant PDC complex spheroid viability
Assay: Anticancer human tumor 186277-243-T-J2-PDC patient-derived colon adenocarcinoma cell line growth inhibition [KRAS2]
Conditions: for IC50: curve of first compound; for viability, T/C: stronger effect = lower value
How it was run: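 KRAS-mutant tumor cells were grown as spheroids with HUVEC endothelial cells and human MSCs as stroma. Targeted agents were tested alone and with KRAS pathway inhibitors. Doses started at or near clinical Cmax, or 10 microM, descending half-log.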

[1] = second compound 0.1 µM, first compound 0.0316 µM
[2] = second compound 0.1 µM, first compound 0.1 µM
[3] = second compound 0.1 µM, first compound 0.316 µM
[4] = second compound 0.1 µM, first compound 1 µM
[5] = second compound 0.1 µM, first compound 3.16 µM
[6] = second compound 0.1 µM, first compound 10 µM
[7] = second compound 0.316 µM, first compound 0.0316 µM
[8] = second compound 0.316 µM, first compound 0.1 µM
[9] = second compound 0.316 µM, first compound 0.316 µM
[10] = second compound 0.316 µM, first compound 1 µM
[11] = second compound 0.316 µM, first compound 3.16 µM
[12] = second compound 0.316 µM, first compound 10 µM
[13] = second compound 1 µM, first compound 0.0316 µM
[14] = second compound 1 µM, first compound 0.1 µM
[15] = second compound 1 µM, first compound 0.316 µM
[16] = second compound 1 µM, first compound 1 µM
[17] = second compound 1 µM, first compound 3.16 µM
[18] = second compound 1 µM, first compound 10 µM
[19] = second compound 3.16 µM, first compound 0.0316 µM
[20] = second compound 3.16 µM, first compound 0.1 µM
[21] = second compound 3.16 µM, first compound 0.316 µM
[22] = second compound 3.16 µM, first compound 1 µM
[23] = second compound 3.16 µM, first compound 3.16 µM
[24] = second compound 3.16 µM, first compound 10 µM
[25] = second compound 10 µM, first compound 0.0316 µM
[26] = second compound 10 µM, first compound 0.1 µM
[27] = second compound 10 µM, first compound 0.316 µM
[28] = second compound 10 µM, first compound 1 µM
[29] = second compound 10 µM, first compound 3.16 µM
[30] = second compound 10 µM, first compound 10 µM
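For viability, T/C in this document: viability read after seven days of compound exposure; 100% = DMSO vehicle-treated spheroids so lower means less viable.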

SMILES	IC50 (second compound 0.1 µM) [nM]	IC50 (second compound 0.316 µM) [nM]	IC50 (second compound 1 µM) [nM]	IC50 (second compound 3.16 µM) [nM]	IC50 (second compound 10 µM) [nM]	viability, T/C [1] [%]	viability, T/C [2] [%]	viability, T/C [3] [%]	viability, T/C [4] [%]	viability, T/C [5] [%]	viability, T/C [6] [%]	viability, T/C [7] [%]	viability, T/C [8] [%]	viability, T/C [9] [%]	viability, T/C [13] [%]	viability, T/C [14] [%]	viability, T/C [19] [%]	viability, T/C [20] [%]	viability, T/C [25] [%]	viability, T/C [26] [%]	further results
COc1cc(Nc2ncc3c(n2)-c2ccc(Cl)cc2C(c2c(F)cccc2OC)=NC3)ccc1C(=O)O + CC1OCC2(CCN(c3cnc(Sc4ccnc(N)c4Cl)c(N)n3)CC2)C1N	< 31.6	< 31.6	< 31.6	< 31.6	< 31.6	36	32.9	33	35.2	38.8	33.8	30.3	29.7	24.5	22.2	22.8	17.1	18	13.7	13.9	viability, T/C [10]: 27.9%; viability, T/C [11]: 30.4%; viability, T/C [12]: 27.5%; viability, T/C [15]: 21.1%; viability, T/C [16]: 22.1%; viability, T/C [17]: 22.6%; viability, T/C [18]: 21.7%; viability, T/C [21]: 15.8%; viability, T/C [22]: 15.7%; viability, T/C [23]: 16.1%; viability, T/C [24]: 16.2%; viability, T/C [27]: 11.8%; viability, T/C [28]: 11.4%; viability, T/C [29]: 12.1%; viability, T/C [30]: 11.9%
COc1cc2nccc(Oc3ccc(NC(=O)C4(C(=O)Nc5ccc(F)cc5)CC4)cc3)c2cc1OC + CC1OCC2(CCN(c3cnc(Sc4ccnc(N)c4Cl)c(N)n3)CC2)C1N	1980	2030	1710	821	284	106	111	105	103	13.7	8.67	115	98.8	109	104	112	94	92.8	63.5	60.7	viability, T/C [10]: 107%; viability, T/C [11]: 14.6%; viability, T/C [12]: 9.03%; viability, T/C [15]: 104%; viability, T/C [16]: 85.2%; viability, T/C [17]: 9.37%; viability, T/C [18]: 6.62%; viability, T/C [21]: 83.7%; viability, T/C [22]: 43.6%; viability, T/C [23]: 5.99%; viability, T/C [24]: 4.64%; viability, T/C [27]: 48.5%; viability, T/C [28]: 21.8%; viability, T/C [29]: 3.73%; viability, T/C [30]: 3.26%
Cn1ncnc1[C@H]1c2n[nH]c(=O)c3cc(F)cc(c23)N[C@@H]1c1ccc(F)cc1 + CC1OCC2(CCN(c3cnc(Sc4ccnc(N)c4Cl)c(N)n3)CC2)C1N	> 100	> 100	89.2	18.7	4.16	84.2	62.3					76.8	58.1		62.4	50.6	41.5	36	31.5	25.4	viability, T/C (second compound 0.1 µM, first compound 0.000316 µM): 107%; viability, T/C (second compound 0.1 µM, first compound 0.001 µM): 116%; viability, T/C (second compound 0.1 µM, first compound 0.00316 µM): 110%; viability, T/C (second compound 0.1 µM, first compound 0.01 µM): 90.5%; viability, T/C (second compound 0.316 µM, first compound 0.000316 µM): 126%; viability, T/C (second compound 0.316 µM, first compound 0.001 µM): 120%; viability, T/C (second compound 0.316 µM, first compound 0.00316 µM): 104%; viability, T/C (second compound 0.316 µM, first compound 0.01 µM): 84.3%; viability, T/C (second compound 1 µM, first compound 0.000316 µM): 119%; viability, T/C (second compound 1 µM, first compound 0.001 µM): 103%; viability, T/C (second compound 1 µM, first compound 0.00316 µM): 89.4%; viability, T/C (second compound 1 µM, first compound 0.01 µM): 71.4%; viability, T/C (second compound 3.16 µM, first compound 0.000316 µM): 81.9%; viability, T/C (second compound 3.16 µM, first compound 0.001 µM): 85.6%; viability, T/C (second compound 3.16 µM, first compound 0.00316 µM): 76.3%; viability, T/C (second compound 3.16 µM, first compound 0.01 µM): 60.2%; viability, T/C (second compound 10 µM, first compound 0.000316 µM): 66.7%; viability, T/C (second compound 10 µM, first compound 0.001 µM): 68.4%; viability, T/C (second compound 10 µM, first compound 0.00316 µM): 49.4%; viability, T/C (second compound 10 µM, first compound 0.01 µM): 41.3%
